Broadly, the viscosity is the resistance of a fluid to flow. The low end stands for easy flow, the high end for sluggish flow.

Values joined by “and” are separate entries in the source; they are usually repeats but may differ in a detail not shown here. Equal entries are not always repeated. ± gives the uncertainty stated by the source.

As to `C1CCC2=[NH+]CCCN2CC1.c1c[n-]cn1`, the viscosity (298.15 K, 100 kPa) was determined as 34.34 ± 1.5 mPa·s.
For the setting “303.15 K, 101 kPa”, `C1CCCCCC1` showed a viscosity of 1.239 ± 0.0075 mPa·s.
In the case of `CC(=O)O`, the viscosity is, setting by setting: (293.15 K, 101.32 kPa) 1.226 ± 0.014 mPa·s; (293.15 K, 101.33 kPa) 1.226 ± 0.014 mPa·s and 1.222 ± 0.059 mPa·s; (298.15 K, 101.3 kPa) 1.155 ± 0.03 mPa·s and 1.27 ± 0.03 mPa·s; (303.15 K, 100 kPa) 0.982 mPa·s; (303.15 K, 101.33 kPa) 1.346 ± 0.0094 mPa·s and 0.98 ± 0.05 mPa·s; (308.15 K, 101.3 kPa) 1.08 ± 0.03 mPa·s. Moreover, the viscosity is 0.9795 ± 0.012 mPa·s (308.15 K, 101.32 kPa); 0.931 ± 0.025 mPa·s (313.15 K, 101.3 kPa); 0.8536 ± 0.01 mPa·s (318.15 K, 101.32 kPa); 0.823 ± 0.022 mPa·s and 0.883 ± 0.022 mPa·s (323.15 K, 101.3 kPa).
For the compound `CC1CCCC(C)C1=O` (stereo unspecified), the viscosity amounted to 3.709 ± 0.15 mPa·s (303.15 K, 100 kPa); 3.237 ± 0.13 mPa·s (308.15 K, 100 kPa); 2.765 ± 0.11 mPa·s (313.15 K, 100 kPa).
For `CCC(=O)N(CC)CC`, the viscosity (298.16 K, 101 kPa) is 1.241 ± 0.011 mPa·s.
As for `CCCn1cc[n+](C)c1C.F[B-](F)(F)F`, the viscosity runs as follows: (298.15 K, 101 kPa) 377.3 ± 52 mPa·s; (303.15 K, 101 kPa) 271.9 ± 31 mPa·s; (308.15 K, 101 kPa) 202 ± 19 mPa·s; (313.15 K, 101 kPa) 152.2 ± 12 mPa·s; (318.15 K, 101 kPa) 117.4 ± 7 mPa·s; (323.15 K, 101 kPa) 92.29 ± 4.1 mPa·s.
The compound `C[Si]1(C)O[Si](C)(C)O[Si](C)(C)O[Si](C)(C)O1` showed a viscosity (298.15 K, 101 kPa) of 2.19 ± 0.057 mPa·s; a viscosity (298.15 K, 103 kPa) of 2.068 ± 0.044 mPa·s; a viscosity (308.15 K, 101 kPa) of 1.806 ± 0.048 mPa·s; a viscosity (308.15 K, 103 kPa) of 1.71 ± 0.043 mPa·s; a viscosity (318.15 K, 101 kPa) of 1.514 ± 0.04 mPa·s; a viscosity (318.15 K, 103 kPa) of 1.435 ± 0.042 mPa·s.
On to `C[n+]1ccn(CCO)c1.O=S(=O)([O-])C(F)(F)C(F)(F)C(F)(F)C(F)(F)F`, for which the viscosity stood at 831.6 ± 45 mPa·s (298.15 K, 101 kPa); 411.4 ± 20 mPa·s (308.15 K, 101 kPa); 224 ± 10 mPa·s (318.15 K, 101 kPa).

These data come from the CheMixHub viscosity set.
